Reference: patent publication US12357630B2, “Ceritinib formulation” (Novartis AG, priority 2014, dated 2025)
≈ marks a conversion by molar mass, not a printed value.

Legend:
Solubility in water = format: physicochemical; settings: 25° C.
Procedure: (§1) Ceritinib is a difficult compound to formulate. […] In addition, physical characteristics of Ceritinib cause sticking and picking during tableting or encapsulation of the drug and make it poorly compressible. Furthermore, the drug is administered at a high dose of 750 mg, which would require a patient to take daily up to 5 units of 150 mg. If the dose is to be increased in a respective dosage form, the increase in drug load generally negatively affects the compressibility of a tablet. Ceritinib's sticky nature causes a high drug load to further negatively influence the manufacturing of tablets due to enhanced sticking/picking.

[1] = Permeability / Biopharmaceutics Classification System; format: in vitro ADME
Procedure: as §1

- solubility (Solubility in water): 20 µg/mL (≈ 35.8 µM)
- permeability [1]: low permeability
Structure (SMILES): Cc1cc(Nc2ncc(Cl)c(Nc3ccccc3S(=O)(=O)C(C)C)n2)c(OC(C)C)cc1C1CCNCC1 [Ceritinib, 5-chloro-N^2-(2-isopropoxy-5-methyl-4-(piperidin-4-yl)phenyl)-N^4-[2-(propane-2-sulfonyl)-phenyl]-pyrimidine-2,4-diamine]
